In PubChem BioAssay AID1996:
Converted amounts (≈) assume the structure as drawn. Non-standard residues stand in square brackets, D forms with d. Residues, ends and D or L forms follow the SMILES beside them. *: point of attachment. Tic = O=C(O)[C@@H]1Cc2ccccc2CN1; NHPr = CCCN*

Conditions: buffer; pH 7.4; 200.0 µM

SMILES	solubility kinetic [µg/mL]
O=C(COC(=O)c1ccc(F)cc1)NCC1CCCCC1	9.4 (≈ 32 µM)
CN1C2CCC1CC(NS(=O)(=O)c1cccc(C(F)(F)F)c1)C2 (stereo unspecified)	48.3 (≈ 139 µM)
Fc1ccc(-c2csc(-c3ccc(C4SCCS4)cc3)n2)cc1F	< 0.8
O=C1C2CCCN2C(=S)N1Cc1ccccc1 (stereo unspecified)	> 36.9
Cc1ccc(CCC(=O)Nc2ccc(Br)cc2)o1	4.2 (≈ 13.6 µM)
CCn1c(C(=O)NC2CCC(C)CC2)cc2sccc21 (stereo unspecified)	0.7 (≈ 2.41 µM)
Cc1ccc(F)cc1NC(=O)/C=C/c1ccc(S(=O)(=O)N2CCOCC2)cc1	1.8 (≈ 4.45 µM)
O=C(O)C1CN(C(=O)c2ccccc2)c2cc(Cl)ccc2O1 (stereo unspecified)	> 47.7
O=C1CC(c2ccsc2)Sc2ccccc2N1 (stereo unspecified)	33.9 (≈ 130 µM)
O=C(CCc1nc(-c2ccccc2Cl)no1)NC1CCCC1	23 (≈ 71.9 µM)
Cc1cccc(N2CCN(C(=O)c3ccc4c(c3)OCCO4)CC2)c1C	15.7 (≈ 44.5 µM)
Cc1cccc(C(=O)NCCCNC(=O)c2ccco2)c1	> 42.9
C=CCNC(=O)C1CCC(=O)N1S(=O)(=O)c1ccc(C)cc1 (stereo unspecified)	> 48.4
COc1ccc(/C=C2\C(=O)ON=C2c2ccccc2)cc1	39.1 (≈ 140 µM)
c1ccn2cc(-c3ccc4c(c3)OCCO4)nc2c1	> 37.8
COc1ccc(NC(=O)CS(=O)(=O)c2ccc(C)cc2)c(OC)c1	> 52.4
CCSc1ccccc1C(=O)Nc1ccc([N+](=O)[O-])cc1OC	1.4 (≈ 4.21 µM)
O=C(NCC1CCCO1)c1cc(-c2ccccc2)nc2ccccc12 (stereo unspecified)	> 49.9
O=C(Cn1cc([N+](=O)[O-])cn1)NC1CCCCCC1	> 39.9
O=C(CSc1ccccc1)NC1CCCCCCC1	40.6 (≈ 146 µM)
CC(=O)Nc1ccc(OCCC[n+]2cccc(C(=O)[O-])c2)cc1	39.6 (≈ 126 µM)

SMILES	solubility kinetic [µg/mL]
Cl.OCCN1CCN(CC/C=C2/c3ccccc3Sc3ccc(C(F)(F)F)cc32)CC1	60.1
CCCCc1c(C)[nH]c2nc3ccccc3n2c1=O	< 0.2
O=C1CCCN1CCCNS(=O)(=O)c1ccc(F)cc1F	> 47.8
COC(=O)c1cc(S(=O)(=O)N2CCCC(C)C2)c[nH]1 (stereo unspecified)	> 43
Cc1ccc(NC(=O)CCc2nc3ccccc3[nH]2)cc1C	0.3 (≈ 1.02 µM)
CCC(=O)N1CCN(c2ccccc2NC(=O)c2ccc([N+](=O)[O-])o2)CC1	32.4 (≈ 87 µM)
COc1cccc(-c2noc(CCC(=O)NCCc3ccccc3)n2)c1	44.3 (≈ 126 µM)
NS(=O)(=O)c1cccc(NC(=O)c2cccs2)c1	> 42.3
Cc1cc(C)nc(SCC(=O)NC(=O)c2ccccc2O)n1	> 47.6
CC(Oc1ccccc1)C(=O)OCC(=O)Nc1ccc2c(c1)OCO2 (stereo unspecified)	> 51.5
O=C1CN=C(c2ccccc2)c2ccccc2N1	27.2 (≈ 115 µM)
CCc1nc2ccc(C(=O)NCc3ccccc3)cc2nc1CC	3.6 (≈ 11.3 µM)
Cc1csc(NC(=O)c2ccncc2)n1	17.9 (≈ 81.6 µM)
Cc1ccc(/C=C/C(=O)NCCc2ccccc2)o1	33.9 (≈ 133 µM)
C=CCn1cccc(C(=O)Nc2ccc(C)c(C)c2)c1=O	33.4 (≈ 118 µM)
CCCC(=O)Nc1ccc2c(c1)nc1n2CCN(CCOC)C1	> 47.5
N#Cc1ccc(C(=O)NC(=S)NC2CCCCC2)cc1	21.9 (≈ 76.2 µM)
O=C(NCc1cccnc1)Nc1ccc(Cl)cc1Cl	> 44.4
COc1ccccc1CNC(=O)COc1ccc(C)cc1	26.2 (≈ 91.8 µM)
O=C(Nc1cccc([N+](=O)[O-])c1)c1ccccc1	9.6 (≈ 39.6 µM)
CSc1ccccc1NC(=O)Cc1ccccc1[N+](=O)[O-]	5.7 (≈ 18.9 µM)

SMILES	solubility kinetic [µg/mL]
CCOc1ccccc1NC(=O)C1C2CCC(O2)C1C(=O)O (stereo unspecified)	> 45.8
O=C(Nc1ccccc1Cl)c1ccc([N+](=O)[O-])o1	39.4 (≈ 148 µM)
Cc1ccc(C(=O)NCc2ccc3c(c2)OCO3)cc1	34.8 (≈ 129 µM)
CNC(=S)NNC(=O)Cc1ccc(OC)cc1	> 38
Cc1cccc(Cc2c(C)[nH]c(=O)c(C#N)c2C)c1	5.5 (≈ 21.8 µM)
COc1cccc(NC(=O)c2ccc3c(c2)OCO3)c1	> 40.7
Cl.c1ccc(Cc2ccc(OCCN3CCOCC3)cc2)cc1	42.2
COc1ccccc1Nc1ncnc2sccc12	30.1 (≈ 117 µM)
COc1ccc(Cl)cc1NCCC(O)c1ccc(F)cc1 (stereo unspecified)	24.7 (≈ 79.7 µM)
CCCNC(=O)[C@@H]1CCCN1C(=O)[C@@H]1Cc2ccccc2CN1.Cl (H-[Tic]-Pro-NHPr)	> 52.8
Cc1ccc(C(=O)Nc2cccc3cccnc23)cc1Br	< 0.4
CCN(CC)S(=O)(=O)c1nnc(NC(=O)c2ccco2)s1	> 49.6
O=C(NCCNc1ccc(Cl)cc1[N+](=O)[O-])c1ccccc1F	1.5 (≈ 4.44 µM)
NS(=O)(=O)c1ccc(CNC(=O)c2cccnc2Cl)cc1	38.3 (≈ 118 µM)
CCOc1ccccc1NC(=O)CCn1ccnc1	37 (≈ 143 µM)
CCN(Cc1ccccc1)C(=O)c1c(-c2ccccc2Cl)noc1C	38.7 (≈ 109 µM)
NC1=NC(=O)/C(=C/c2ccccc2OCC(=O)Nc2ccc(F)cc2)S1	3.8 (≈ 10.2 µM)
O=C(COc1ccc(F)cc1Cl)NC1CCCCCC1	28.3 (≈ 94.4 µM)
O=C(Nc1nc2ccccc2s1)c1ccc(F)cc1	0.6 (≈ 2.2 µM)
